Results reported in patent US11440923B2, “Substituted macrocyclic indole derivatives” (Bayer Aktiengesellschaft, priority 2017, dated 2022).
Where two headings read alike, the source gives them in different places.

Key:
AMO-1 cells = assay: Antiproliferation assay AMO-1 (Assay 7); format: cell-based; settings: 72 h, CellTiter-Glo, read-out: Antiproli AMO-1 IC50 median
How it was run: (§1)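 After overnight attachment at 37 °C, cells received compound for 72 h in a humidified incubator. Viability was read by CellTiter-Glo luminescence. A separate day 0 plate defined starting cell number for IC50 fitting against DMSO controls.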

SUDHL5 cells [1] = assay: Antiproliferation assay SUDHL5 (Assay 7); format: cell-based; settings: 72 h, CellTiter-Glo, read-out: Antiproli SUDHL5 IC50 (median)
How it was run: as §1

SUDHL5 cells [2] = assay: Induction of cytotoxicity in SUDHL5 cells (Assay 6); format: cell-based
How it was run: (§2)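 Overnight seeding, 37 °C; 5 h compound exposure; CellTiter-Glo, 15 min RT shake; luminescence read. No-cell medium control.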

SUDHL5 cells [3] = assay: Induction of caspase-3/7 activity in SUDHL5 cells (Assay 4); format: cell-based; settings: caspase-3/7 induction, 3 h, read-out: Caspase SUDHL5 EC50 (median)
How it was run: (§3)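 Caspase-3/7 activity measured in DLBCL lines after 3 h compound exposure at 37 °C, following overnight plating; Caspase-Glo 3/7 luminescence read after 1 h at 37 °C. Medium-only background subtracted, values normalized to mean of DMSO-treated cells.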

SUDHL10 cells [4] = assay: Induction of cytotoxicity in SUDHL10 cells (Assay 6); format: cell-based
How it was run: as §2

MCL-1 = MCL-1 (Homo sapiens (Human), UniProt Q07820, K194A/K197A/R201A); assay: Protein-protein interaction assay MCL-1/Noxa BH3 peptide (MCL-1 assay, TR-FRET); format: binding
Sequence of MCL-1 (Q07820 whole entry, looked up, stated change not applied, the tested form may be a part): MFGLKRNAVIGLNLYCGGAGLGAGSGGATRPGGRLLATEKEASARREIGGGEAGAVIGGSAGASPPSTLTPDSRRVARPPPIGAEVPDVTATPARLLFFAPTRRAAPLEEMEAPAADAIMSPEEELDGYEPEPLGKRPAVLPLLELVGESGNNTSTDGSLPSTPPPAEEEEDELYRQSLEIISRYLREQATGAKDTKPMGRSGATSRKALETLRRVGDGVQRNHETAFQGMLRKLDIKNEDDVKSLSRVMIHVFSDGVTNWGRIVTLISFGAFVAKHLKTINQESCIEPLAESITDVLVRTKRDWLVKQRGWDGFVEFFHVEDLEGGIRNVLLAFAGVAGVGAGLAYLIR
Method: The dose-dependent inhibition by the compounds described in this invention of the interaction between MCL-1 and the BH3 domain of Noxa (both human) was determined using a steady state binding competition assay with time-resolved fluorescence energy transfer (TR-FRET) readout. For that purpose MCL-1 (amino acids 173-321, N-terminal fused to Maltose Binding Protein (MBP) SEQ ID 1)) and a synthetic Noxa BH3-derived peptide of sequence Biotin-PEG2-PEG2-PAELEVE-Nva-[…]-amide (SEQ ID 2) served as protein receptor and tracer ligand respectively. The MBP-MCL-1 was purchased from Beryllium (Bedford, Mass., USA). The expression and purification of this protein construct has been described elsewhere (DOI:10.1371/journal.pone.0125010). The Noxa BH3-derived peptide can be obtained from e.g. Biosyntan (Berlin, Germany).
For that, 100-fold concentrated DMSO solutions were prepared by serial dilutions (1:3.4) of a 2 mM stock solution in a clear, 384-well microtiter plate (Greiner Bio-One, Frickenhausen, Germany). From there, 50 nl were transferred in a dark test plate (Greiner Bio-One, Frickenhausen, Germany). The assay was initiated by addition of 2 μL of a 2,5-fold concentrated MBP-MCL-1 solution (usually for a 1 nM end concentration in 5 μL reaction volume) in aqueous assay buffer [50 mM Tris/HCl pH 7, 100 mM sodium chloride (NaCl), 50 mM potassium fluoride (KF), 0.005% Tween-20, 2 mM DTT, 0.1% bovine gamma globulin (BGG)] to the compounds in the assay plate. This was followed by a 10-minute incubation step at 22° C. for pre-equilibration of the putative complex between MBP-MCL-1 and the compounds.
The mixture was incubated in the dark for one hour at 22° C. and then overnight at 4° C. The formation of MCL-1/Noxa complexes was determined by measuring the resonance energy transfer of the anti-MBP-Eu-cryptate antibody to the streptavidin-XL665 present in the reaction.
For that purpose, the fluorescence emission at 620 nm and 665 nm after excitation at 330-350 nm was measured in a TR-FRET measuring instrument, for instance a Rubystar or a Pherastar (both from BMG Lab Technologies, Offenburg, Germany) or a Viewlux (Perkin-Elmer). The ratio of the emission at 665 nm and at 622 nm was used as indicator of the amount of MCL-1/NOXA complexes present.
The resulting data (ratio) were normalized, taking 0% inhibition as the mean value of control measurements (usually 32 data points) where all reagents were included. In this case 50 nl DMSO were used instead of compounds. […] IC50 values were determined by regression analysis based on a 4 parameter equation (minimum, maximum, IC50, Hill; Y=Max+(Min−Max)/(1+(X/IC50)^Hill) using the Screener Software (Genedata).

SUDHL10 cells [5] = assay: Induction of caspase-3/7 activity in SUDHL10 cells (Assay 4); format: cell-based; settings: caspase-3/7 induction, 3 h, read-out: Caspase SUDHL10 EC50 (median)
How it was run: as §3

HMC-1-8 cells = assay: Antiproliferation assay HMC-1-8 (Assay 7); format: cell-based
How it was run: as §1

[6] = 5 h, CellTiter-Glo, read-out: Cytotox SUDHL5 IC50 (median)
[7] = 5 h, CellTiter-Glo, read-out: Cytotox SUDHL10 IC50 (median)
[8] = 72 h, CellTiter-Glo; read-out: Antiproli HMC-1-8 IC50 median
[9] = read-out: MCL-1 Assay IC50 (median)

SMILES	IC50 (SUDHL5 cells [1]; Homo sapiens, SU-DHL-5, 72 h) [nM]	EC50 (SUDHL5 cells [3]; Homo sapiens, SU-DHL-5, 3 h) [nM]	IC50 (MCL-1; MCL-1 Assay IC50 (median)) [nM]	EC50 (SUDHL10 cells [5]) [nM]	IC50 (SUDHL5 cells [1]) [nM]	EC50 (SUDHL5 cells [3]) [nM]	EC50 (SUDHL10 cells [5]; Homo sapiens, SU-DHL10, 3 h) [nM]	IC50 (MCL-1; [9]) [nM]	IC50 (AMO-1 cells) [nM]	IC50 (SUDHL5 cells [2]; [6]) [nM]	IC50 (SUDHL10 cells [4]; [7]) [nM]	IC50 (HMC-1-8 cells; [8]) [nM]	IC50 (AMO-1 cells; Homo sapiens, AMO1, 72 h) [nM]	IC50 (SUDHL5 cells [2]; Homo sapiens, SU-DHL-5, 5 h, 5 h, CellTiter-Glo, read-out: Cytotox SUDHL5 IC50 (median)) [nM]	IC50 (SUDHL10 cells [4]; Homo sapiens, SU-DHL10, 5 h, 5 h, CellTiter-Glo, read-out: Cytotox SUDHL10 IC50 (median)) [nM]	IC50 (HMC-1-8 cells; 72 h, CellTiter-Glo, read-out: Antiproli HMC-1-8 IC50 median) [nM]	IC50 (SUDHL5 cells [2]) [nM]	IC50 (SUDHL10 cells [4]) [nM]
CCc1c2c(nn1C)C(CCN1CC(F)C1)OCCCCn1c(C(=O)O)c(CCCOc3cccc4cc(F)ccc34)c3ccc(Cl)c-2c31 (racemic) [Example 108, (rac)-4-chloro-3-ethyl-15-[2-(rac)-(3-fluoroazetidin-1-yl)ethyl]-7-{3-[(6-fluoronaphthalen-1-yl)oxy]propyl}-2-methyl-2,10,11,12,13,15-hexahydropyrazolo[4′,3′:9,10][1,6]oxazacycloundecino[8,7,6-hi]indole-8-carboxylic Acid]	70	66	1.2	–	–	–	67	–	–	–	–	–	51.8	84	130	1870	–	–
CCc1c2c(nn1C)C1CCCN1CCCCn1c(C(=O)O)c(CCCOc3cccc4cc(F)ccc34)c3ccc(Cl)c-2c31 (single isomer, unassigned; (-)) [Example 106, (−)-17-chloro-1-ethyl-14-{3-[(6-fluoronaphthalen-1-yl)oxy]propyl}-2-methyl-3b,4,5,6,8,9,10,11-octahydro-2H-pyrazolo[3′,4′:8,9]pyrrolo[1′,2′:6,7][1,6]diazacycloundecino[10,11,1-hi]indole-13-carboxylic Acid]	–	–	–	4800	2100	2700	–	17	4450	3700	5700	20600	–	–	–	–	–	–
CCc1c2c(nn1C)C(CCC1CCOCC1)N(C)CCCCn1c(C(=O)O)c(CCCOc3cccc4cc(F)ccc34)c3ccc(Cl)c-2c31 (stereo not drawn) [Example 101, 4-chloro-3-ethyl-7-{3-[(6-fluoro-1-naphthyl)oxy]propyl}-2,14-dimethyl-15-[2-(tetrahydro-2H-pyran-4-yl)ethyl]-10,11,12,13,14,15-hexahydro-2H-pyrazolo[3′,4′:8,9][1,6]diazacycloundecino[10,11,1-hi]indole-8-carboxylic Acid]	–	–	–	51	110	69	–	1.8	95.8	–	–	1490	–	–	–	–	140	71

Now from value to compound, other results behind:

IC50 (SUDHL5 cells [1]; Homo sapiens, SU-DHL-5, 72 h) [nM]	EC50 (SUDHL5 cells [3]; Homo sapiens, SU-DHL-5, 3 h) [nM]	IC50 (MCL-1; MCL-1 Assay IC50 (median)) [nM]	EC50 (SUDHL10 cells [5]) [nM]	IC50 (SUDHL5 cells [1]) [nM]	EC50 (SUDHL5 cells [3]) [nM]	EC50 (SUDHL10 cells [5]; Homo sapiens, SU-DHL10, 3 h) [nM]	IC50 (MCL-1; [9]) [nM]	SMILES	IC50 (AMO-1 cells) [nM]	IC50 (SUDHL5 cells [2]; [6]) [nM]	IC50 (SUDHL10 cells [4]; [7]) [nM]	IC50 (HMC-1-8 cells; [8]) [nM]	IC50 (AMO-1 cells; Homo sapiens, AMO1, 72 h) [nM]	IC50 (SUDHL5 cells [2]; Homo sapiens, SU-DHL-5, 5 h, 5 h, CellTiter-Glo, read-out: Cytotox SUDHL5 IC50 (median)) [nM]	IC50 (SUDHL10 cells [4]; Homo sapiens, SU-DHL10, 5 h, 5 h, CellTiter-Glo, read-out: Cytotox SUDHL10 IC50 (median)) [nM]	IC50 (HMC-1-8 cells; 72 h, CellTiter-Glo, read-out: Antiproli HMC-1-8 IC50 median) [nM]	IC50 (SUDHL5 cells [2]) [nM]	IC50 (SUDHL10 cells [4]) [nM]
550	330	0.88	360	–	–	–	–	CCc1c2c(nn1C)C1CCCN1CCCCn1c(C(=O)O)c(CCCOc3cccc4cc(F)ccc34)c3ccc(Cl)c-2c31 (racemic) [Example 104, (rac)-17-chloro-1-ethyl-14-{3-[(6-fluoronaphthalen-1-yl)oxy]propyl}-2-methyl-3b,4,5,6,8,9,10,11-octahydro-2H-pyrazolo[3′,4′:8,9]pyrrolo[1′,2′:6,7][1,6]diazacycloundecino[10,11,1-hi]indole-13-carboxylic Acid]	543	340	430	2630	–	–	–	–	–	–
–	–	1.1	1200	1100	540	–	–	CCc1c2c(nn1C)C1CCCN1CCCCn1c(C(=O)O)c(CCCOc3cccc4cc(F)ccc34)c3ccc(Cl)c-2c31 (racemic) [Example 107, (rac)-17-chloro-1-ethyl-14-{3-[(6-fluoronaphthalen-1-yl)oxy]propyl}-2-methyl-3b,4,5,6,8,9,10,11-octahydro-2H-pyrazolo[3′,4′:8,9]pyrrolo[1′,2′:6,7][1,6]diazacycloundecino[10,11,1-hi]indole-13-carboxylic Acid]	1340	690	890	6640	–	–	–	–	–	–
–	–	7.8	4400	2100	1600	–	–	CCc1c2c(nn1C)C(CCCN1CCOCC1)OCCCCn1c(C(=O)O)c(CCCOc3cccc4cc(F)ccc34)c3ccc(Cl)c-2c31 (single isomer, unassigned; enantiomer 2) [Example 67, (−)-4-chloro-3-ethyl-7-{3-[(6-fluoronaphthalen-1-yl)oxy]propyl}-2-methyl-15-[3-(morpholin-4-yl)propyl]-2,10,11,12,13,15-hexahydropyrazolo[4′,3′:9,10][1,6]oxazacycloundecino[8,7,6-hi]indole-8-carboxylic Acid (Enantiomer 2)]	633	2600	4900	> 33000	–	–	–	–	–	–
